Results published in patent US20100267561A1, “HERBICIDAL PYRIDAZINONE DERIVATIVES” (priority 2007, published 2010).
Like-named read-outs stand apart in the source and are kept apart here.

Legend:
Type in all cases: in vivo
[1] = tested on: cocklebur (Xanthium strumarium); test: Test B pre-/postemergence plant response; settings: for pest or weed control at 31 g/ha: 31 g ai/ha; for pest or weed control at 62 g/ha: 62 g ai/ha, 100 complete control
Procedure, shortened: (§1)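 Seeds were sown and sprayed preemergence, while plants at 2 to 18 cm (1- to 4-leaf stage) got postemergence sprays. Compounds were formulated in a non-phytotoxic solvent mixture with surfactant. After 13 to 15 days in a greenhouse, injury was rated visually against untreated controls, 0 (no effect) to 100 (complete control).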

[2] = tested on: bermudagrass (Cynodon dactylon); test: Test B pre-/postemergence plant response; settings: for pest or weed control at 31 g/ha: 31 g ai/ha; for pest or weed control at 62 g/ha: 62 g ai/ha, 100 complete control
Procedure, shortened: as §1

[3] = tested on: yellow nutsedge (Cyperus esculentus); test: Test B pre-/postemergence plant response; settings: for pest or weed control at 31 g/ha / pest or weed control at 62 g/ha: Cyperus, read-out: Plant response rating, Nutsedge, Yellow; for pest or weed control at 31 g/ha: 31 g ai/ha; for pest or weed control at 62 g/ha: 62 g ai/ha, 100 complete control
Procedure, shortened: as §1

[4] = tested on: chickweed (Stellaria media); test: Test B postemergence plant response; settings: for Plant response rating, Chickweed: Postemergence
Protocol: At the same time, plants selected from these crop and weed species and also winter barley (Hordeum vulgare), canarygrass (Phalaris minor), chickweed (Stellaria media) and windgrass (Apera spica-venti) were treated with postemergence applications of some of the test chemicals formulated in the same manner. Plants ranged in height from 2 to 18 cm (1- to 4-leaf stage) for postemergence treatments.
Plant species in the flooded paddy test consisted of rice (Oryza sativa), umbrella sedge (Cyperus difformis), ducksalad (Heteranthera limosa) and barnyardgrass (Echinochloa crus-galli) grown to the 2-leaf stage for testing. At time of treatment, test pots were flooded to 3 cm above the soil surface, treated by application of test compounds directly to the paddy water, and then maintained at that water depth for the duration of the test. Treated plants and controls were maintained in a greenhouse for 13 to 15 days, after which time all species were compared to controls and visually evaluated. Plant response ratings, summarized in Table B, are based on a scale of 0 to 100 where 0 is no effect and 100 is complete control. A dash (-) response means no test result.

corn (Zea mays) = test: Test A pre-/postemergence plant response; settings: Zea mays, 240 h; for Corn plant response rating (crop injury, 0 = no effect, 100 = complete kill) at 31 g/ha: 31 g ai/ha; for Corn plant response rating (crop injury, 0 = no effect, 100 = complete kill) at 125 g/ha: 125 g ai/ha
Procedure, shortened: (§2)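 Seeds were planted in blended loam soil and sand, then treated preemergence by directed soil spray. At that time, emerged plants (one- to two-leaf, 2–10 cm) received postemergence applications of the same surfactant-containing formulation. Injury was assessed visually on a 0–100 scale after approximately 10 days.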

[5] = tested on: barnyardgrass (Echinochloa crus-galli); test: Test A pre-/postemergence plant response; settings: Echinochloa crus-galli, 240 h, read-out: Plant response rating, Barnyardgrass; for pest or weed control at 31 g/ha: 31 g ai/ha; for pest or weed control at 125 g/ha: 125 g ai/ha
Procedure, shortened: as §2

[6] = tested on: wheat (Triticum aestivum); test: Test A pre-/postemergence plant response; settings: Triticum aestivum, 240 h, read-out: Plant response rating, Wheat; for plant injury at 31 g/ha: 31 g ai/ha; for plant injury at 125 g/ha: 125 g ai/ha
Procedure, shortened: as §2

[7] = tested on: pigweed (Amaranthus retroflexus); test: Test A pre-/postemergence plant response; settings: Amaranthus retroflexus, 240 h, read-out: Plant response rating, Pigweed; for pest or weed control at 31 g/ha: 31 g ai/ha; for pest or weed control at 125 g/ha: 125 g ai/ha
Procedure, shortened: as §2

[8] = tested on: large crabgrass (Digitaria sanguinalis); test: Test A pre-/postemergence plant response; settings: Digitaria sanguinalis, 240 h, read-out: Plant response rating, Crabgrass, Large; for pest or weed control at 31 g/ha: 31 g ai/ha; for pest or weed control at 125 g/ha: 125 g ai/ha
Procedure, shortened: as §2

[9] = tested on: giant foxtail (Setaria faberi); test: Test A pre-/postemergence plant response; settings: Setaria faberi, 240 h, read-out: Plant response rating, Foxtail, Giant; for pest or weed control at 31 g/ha: 31 g ai/ha; for pest or weed control at 125 g/ha: 125 g ai/ha
Procedure, shortened: as §2

[10] = 8 g ai/ha, postemergence, 0-100 scale
[11] = Preemergence, 8 g ai/ha, scale 0 to 100
[12] = Preemergence, 16 g ai/ha, scale 0 to 100
[13] = post-emergence, Postemergence, 0 to 100 scale (0 no effect, 100 complete control)
[14] = post-emergence, Postemergence, 0 to 100 scale, 0 no effect, 100 complete control
[15] = pre-emergence, Preemergence, 0 to 100 scale, 0 is no effect, 100 is complete control
[16] = pre-emergence, Preemergence, 0 to 100 scale (0 no effect, 100 complete control)

## Cc1nn(C)c(=O)c(-n2nc(-c3ccc(C(F)(F)F)cc3)cc2C)c1O [Compound 75, 5-hydroxy-2,6-dimethyl-4-[5-methyl-3-[4-(trifluoromethyl)phenyl]-1H-pyrazol-1-yl]-3(2H)-pyridazinone]
[1]; [10]
  Cocklebur plant response rating: 0
[1]; [11]
  Cocklebur plant response rating: 0
[1]; [12]
  Cocklebur plant response rating: 0
[1]; Xanthium strumarium, post-emergence, Postemergence, 16 g ai/ha, scale 0 to 100, read-out: Plant response rating, Cocklebur
  pest or weed control at 16 g/ha: 0%
[1]; Xanthium strumarium, post-emergence, Postemergence, scale 0 to 100, read-out: Plant response rating, Cocklebur
  pest or weed control at 31 g/ha: 0%
[1]; Xanthium strumarium, post-emergence, Postemergence, scale 0 to 100, 0 no effect, read-out: Plant response rating, Cocklebur
  pest or weed control at 62 g/ha: 0%
[1]; Xanthium strumarium, pre-emergence, Preemergence, scale 0 to 100 (0 no effect, 100 complete control), read-out: Plant response rating, Cocklebur
  pest or weed control at 31 g/ha: 0%
[1]; Xanthium strumarium, pre-emergence, Preemergence, 0 to 100 scale, 0 no effect, read-out: Plant response rating, Cocklebur
  pest or weed control at 62 g/ha: 0%
[2]; [10]
  Bermudagrass plant response rating: 65
[2]; Cynodon dactylon, post-emergence, Postemergence, 16 g ai/ha, scale 0 to 100, read-out: Plant response rating, Bermudagrass
  pest or weed control at 16 g/ha: 80%
[2]; Cynodon dactylon, post-emergence, Postemergence, scale 0 to 100, read-out: Plant response rating, Bermudagrass
  pest or weed control at 31 g/ha: 85%
[2]; Cynodon dactylon, post-emergence, Postemergence, scale 0 to 100, 0 no effect, read-out: Plant response rating, Bermudagrass
  pest or weed control at 62 g/ha: 90%
[2]; Cynodon dactylon, pre-emergence, Preemergence, scale 0 to 100 (0 no effect, 100 complete control), read-out: Plant response rating, Bermudagrass
  pest or weed control at 31 g/ha: 65%
[2]; Cynodon dactylon, pre-emergence, Preemergence, 0 to 100 scale, 0 no effect, read-out: Plant response rating, Bermudagrass
  pest or weed control at 62 g/ha: 98%
[2]; Preemergence, 16 g ai/ha, scale 0 to 100 (0 no effect, 100 complete control)
  Bermudagrass plant response rating: 0
[3]; [10]
  Nutsedge, Yellow plant response rating: 0
[3]; 16 g ai/ha, postemergence, 0-100 scale
  Nutsedge, Yellow plant response rating: 0
[3]; post-emergence, Postemergence, scale 0 to 100
  pest or weed control at 31 g/ha: 0%
[3]; post-emergence, Postemergence, scale 0 to 100, 0 no effect
  pest or weed control at 62 g/ha: 0%
[3]; pre-emergence, Preemergence, scale 0 to 100 (0 no effect, 100 complete control)
  pest or weed control at 31 g/ha: 0%
[3]; pre-emergence, Preemergence, 0 to 100 scale, 0 no effect
  pest or weed control at 62 g/ha: 0%
[3]; [11]
  Nutsedge, Yellow plant response rating: 0
[3]; [12]
  Nutsedge, Yellow plant response rating: 0
[4]; [10]
  Chickweed plant response rating: 0
[4]; 16 g ai/ha, scale 0 to 100
  Plant response rating, Chickweed: 0
[4]; 31 g ai/ha, scale 0 to 100
  Plant response rating, Chickweed: 0
[4]; 62 g ai/ha, scale 0 to 100, 0 no effect, 100 complete control
  Plant response rating, Chickweed: 0
Corn (Zea mays); [13]
  Corn plant response rating (crop injury, 0 = no effect, 100 = complete kill) at 31 g/ha: 0%
Corn (Zea mays); [14]
  Corn plant response rating (crop injury, 0 = no effect, 100 = complete kill) at 125 g/ha: 90%
Corn (Zea mays); [15]
  Corn plant response rating (crop injury, 0 = no effect, 100 = complete kill) at 31 g/ha: 0%
Corn (Zea mays); [16]
  Corn plant response rating (crop injury, 0 = no effect, 100 = complete kill) at 125 g/ha: 0%
[5]; [13]
  pest or weed control at 31 g/ha: 10%
[5]; [14]
  pest or weed control at 125 g/ha: 90%
[5]; [15]
  pest or weed control at 31 g/ha: 0%
[5]; [16]
  pest or weed control at 125 g/ha: 80%
[6]; [13]
  plant injury at 31 g/ha: 10%
[6]; [14]
  plant injury at 125 g/ha: 70%
[6]; [15]
  plant injury at 31 g/ha: 0%
[6]; [16]
  plant injury at 125 g/ha: 20%
[7]; [13]
  pest or weed control at 31 g/ha: 0%
[7]; [14]
  pest or weed control at 125 g/ha: 0%
[7]; [15]
  pest or weed control at 31 g/ha: 0%
[7]; [16]
  pest or weed control at 125 g/ha: 0%
[8]; [13]
  pest or weed control at 31 g/ha: 20%
[8]; [14]
  pest or weed control at 125 g/ha: 80%
[8]; [15]
  pest or weed control at 31 g/ha: 0%
[8]; [16]
  pest or weed control at 125 g/ha: 40%
[9]; [13]
  pest or weed control at 31 g/ha: 50%
[9]; [14]
  pest or weed control at 125 g/ha: 80%
[9]; [15]
  pest or weed control at 31 g/ha: 20%
[9]; [16]
  pest or weed control at 125 g/ha: 80%
